In US9428813B2, “DNA methylation analysis for the diagnosis, prognosis and treatment of adrenal neoplasms” (The United States of America, as Represented by the …, priority 2012, dated 2016):

System: NCI-H295R cells
Test: Gene expression in decitabine-treated NCI-H295R adrenocortical cells
Type: cell-based
Details: human adrenocortical cells; including H19, S100A10, HOPX, ERBB3 and RUNX2
Method: Studies were performed on human adrenocortical cells and the effect of decitabine on gene-expression of HTN3, H19, S100A10, FAM129A, HOPX, TAC1, UCHL1, ERBB3, BEGNT5, RUNX2, GJA3, and BGN was evaluated. […] As such, these studies indicate that demethylating agents are agents capable of regulating malignant adrenocortical tumor-related molecules and can be used to treat ACC.

For `Nc1ncn([C@H]2C[C@H](O)[C@@H](CO)O2)c(=O)n1` [Decitabine, 5-azadeoxycytidine], the “Effect on expression of malignant adrenocortical tumor-related molecules” value was “significantly alter the expression”.
